Key:
[1] = Mouse pharmacokinetics after oral gavage, plasma drug concentration by LC-MS/MS (C57BL/6); format: in vivo, C57bl/6 mice; conditions: for Cmax / AUC(0-t): mouse, plasma; for AUC(0-t): read-out: AUC0-24
Method: (§1) Compounds were formulated in 5% DMSO/5% Tween20 in H2O, sonicated, vortexed, and put on stir plate overnight at a dose volume of 10 mL/kg. Balb/C (Jackson laboratories) or C57bl/6 (Taconic Biosciences) mice (8-9 weeks old) were acclimated to the colony for 3 days prior to dosing. Water and food were provided ab libitum. Compounds were administered by oral gavage. Groups of six animals received 3 to 4 bleeds per day with one terminal bleed. The time points were 30 min, 1 h, 2 h, 4 h, 6 h, 8 h, 24 h. Plasma was collected via centrifugation and analyzed for drug concentrations.
(§2) Preparation of Study Samples and Standards for Analysis by LC-MS/MS
(§3) 50 μl of plasma was aliquoted into a 96 well deep-well polypropylene plate (2 mL) to which 5 μL of DMSO was added. For standards, 5 μl of test compound in DMSO at […] the standard concentration was added to 50 μl of blank matrix in a 96 well deep-well polypropylene plate. For example, for a 300 nM standard, the 10× DMSO concentration was 3 μM. Study samples that require dilution are diluted with the appropriate blank matrix. For example, for a 10× dilution, 5 μL of study sample is added to 45 μl of blank matrix. Protein was precipitated from study samples and standards with the addition of 150 μl of acetonitrile. After a clean plate map was placed firmly over the top of the 96-well plate, a bench top shaker was used for 1 min to ensure complete precipitation of protein. The precipitated protein was pelleted by centrifuging for 3,000 rpm for 10 min at 20° C. and then the clear supernatant was transferred to a clean 96-well plate and spun again under the same conditions in order to pellet any solid material that may have been transferred.
(§4) Analysis of Study Samples and Standards with LCMS with MRM Detection
(§5) An Agilent 1200 HPLC with binary pump and a Leap CTC with fast wash autosampler were used to introduce samples to the mass spectrometer.
(§6) The column used was a Phenomenex Luna C8 30×2 mm 5 μm with a security guard. Mass detection was performed by an Applied Biosystems 4000 Qtrap in MRM mode and ionization was achieved by positive electrospray with a source temperature of 500° C. The ion transitions, […] potential and collision energies were dependent on the specific analyte.
(§7) Prepared samples were usually analyzed in reverse chronological order with bracketing standard curves. Typically at least 6 standards were used for quantification with a percent accuracy of +/−15% for all standards except at the LLOQ where a percent accuracy of +/−20% was allowed. The concentration time profile was fit using a one compartment model for the applicable mode of dosing using Phoenix WinNonLin 6.4.

[2] = Mouse pharmacokinetics after oral gavage, plasma drug concentration by LC-MS/MS (BALB/c); format: in vivo; conditions: 10 mg/kg, male mice; for Cmax / AUC(0-t): mouse, plasma; for AUC(0-t): read-out: AUC0-24
Method: as §1, §2, §3, §4, §5, §6, §7

CXCR3 = target: T1, CXCR3 (Homo sapiens, UniProt P49682); assay: CXCR3 cAMP agonist assay (cAMP Hunter CHOK1 CXCR3 Gi cell line, forskolin-stimulated, HitHunter cAMP detection); format: cell-based; conditions: cAMP Hunter CHOK1 CXCR3 Gi cells, 20 μM forskolin, 30 minutes; read-out: Activity (CXCR3 cAMP agonist assay compound EC50)
T1 construct: host or cells: CHO-K1 (cAMP Hunter CHOK1 CXCR3 Gi cell line)
T1 sequence (P49682 1-368): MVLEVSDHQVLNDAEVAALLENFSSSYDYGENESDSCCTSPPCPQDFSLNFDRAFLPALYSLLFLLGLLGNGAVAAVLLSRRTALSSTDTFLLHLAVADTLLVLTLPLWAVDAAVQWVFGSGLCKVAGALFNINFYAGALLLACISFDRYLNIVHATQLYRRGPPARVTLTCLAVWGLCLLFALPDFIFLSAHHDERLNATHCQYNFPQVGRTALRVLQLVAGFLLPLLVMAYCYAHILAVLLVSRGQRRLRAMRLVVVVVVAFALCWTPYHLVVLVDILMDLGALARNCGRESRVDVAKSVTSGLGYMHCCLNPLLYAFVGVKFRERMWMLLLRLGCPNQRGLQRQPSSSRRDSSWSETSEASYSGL
Summary of the method: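 CHOK1 cells expressing human CXCR3 with Gi coupling, 50,000/well in suspension in HBSS/10 mM HEPES/0.1% BSA pH 7.4, were co-treated with 20 μM forskolin and compound (12-point, 0-10 μM, 1% DMSO) for 30 min. cAMP was read by enzyme-complementation luminescence; CXCL11 dose response set maximum efficacy.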

Row | Compound | apparent oral clearance (CL/F) ([1]; C57BL/6, 10 mg/kg, male mice) | Cmax ([1]; C57BL/6, 10 mg/kg, male mice) [nM] | apparent oral clearance (CL/F) [2] | Cmax [2] [nM] | EC50 (CXCR3) [nM] | AUC(0-t) [2] [µM·h] | further results
1 | N=C(N)NCCC[C@H](NC(=O)[C@@H]1Cc2ccccc2CN1C(=O)CCC(=O)c1ccccc1)C(=O)NCC1CCCCC1 [A] | BQL | 2 | BQL | 4 | – | – | AUC0-24 ([1]; C57BL/6, 10 mg/kg, male mice): BQL; AUC0-24 [2]: BLQ
2 | NCCCC[C@H](NC(=O)[C@@H]1Cc2ccccc2CN1C(=O)CCC(=O)c1ccccc1)C(=O)NCC(c1ccccc1)c1ccccc1 [B] | 9000 mL/min/kg | 30 | BQL | 7 | – | – | AUC(0-t) ([1]; C57BL/6, 10 mg/kg, male mice): 0.029 µM·h; AUC0-24 [2]: BLQ
3 | NCCCC[C@H](NC(=O)[C@@H]1Cc2ccccc2CN1C(=O)CCC(=O)c1ccccc1)C(=O)Nc1ccc(Cl)c(F)c1 [Compound 1-20] | – | – | 527 mL/min/kg | 230 | 50 to 250 | 0.53 | –
4 | Cc1c(NC(=O)[C@H](CCCCN)NC(=O)[C@@H]2Cc3ccccc3CN2C(=O)CCC(=O)c2ccccc2)ccc(Cl)c1Cl [Compound 1-25] | – | – | 782 mL/min/kg | 70 | < 50 | 0.34 | –
5 | NCCCC[C@H](NC(=O)[C@@H]1Cc2ccccc2CN1C(=O)CCC(=O)c1ccccc1)C(=O)Nc1ccc(F)c(C(F)(F)F)c1 [Compound 1-26] | – | – | – | 3 | < 50 | 0.006 | –
6 | NCC[C@H](NC(=O)[C@@H]1Cc2ccccc2CN1C(=O)CCC(=O)c1ccccc1)C(=O)Nc1ccc(Cl)c(Cl)c1 [Compound 2-1, (S)—N—((S)-4-amino-1-((3,4-dichlorophenyl)amino)-1-oxobutan-2-yl)-2-(4-oxo-4-phenylbutanoyl)-1,2,3,4-tetrahydroisoquinoline-3-carboxamide] | – | – | 66 mL/min/kg | 1800 | 50 to 250 | 4.3 | –
7 | Cc1cc(NC(=O)[C@H](CCN)NC(=O)[C@@H]2Cc3ccccc3CN2C(=O)CCC(=O)c2ccccc2)ccc1Cl [Compound 2-2] | 176 mL/min/kg | 900 | – | 3500 | < 50 | – | apparent oral clearance (CL/F) ([1]; C57BL/6, 60 mg/kg, male mice): 266 mL/min/kg; AUC(0-t) ([1]; C57BL/6, 10 mg/kg, male mice): 1.7 µM·h; Cmax ([1]; C57BL/6, 60 mg/kg, male mice): 2700 nM; AUC(0-t) ([1]; C57BL/6, 60 mg/kg, male mice): 6.7 µM·h
8 | Cc1ccc(NC(=O)[C@H](CCN)NC(=O)[C@@H]2Cc3ccccc3CN2C(=O)CCC(=O)c2ccccc2)cc1C [Compound 2-3] | – | – | 403 mL/min/kg | 400 | < 50 | 0.8 | –
9 | Cc1cccc(NC(=O)[C@H](CCN)NC(=O)[C@@H]2Cc3ccccc3CN2C(=O)CCC(=O)c2ccccc2)c1 [Compound 2-5] | – | – | 389 mL/min/kg | 500 | < 50 | 0.8 | –
10 | Cc1ccc(NC(=O)[C@H](CCN)NC(=O)[C@@H]2Cc3ccccc3CN2C(=O)CCC(=O)c2ccccc2)cc1C(F)(F)F [Compound 2-7] | – | – | 86 mL/min/kg | 1900 | < 50 | 3.3 | –
11 | Cc1cc(NC(=O)[C@H](CCN)NC(=O)[C@@H]2Cc3ccccc3CN2C(=O)CCC(=O)c2ccccc2)c(F)cc1Cl [Compound 2-18] | – | – | 47 mL/min/kg | 2900 | < 50 | 6.2 | –
12 | Cc1cc(NC(=O)[C@H](CCN)NC(=O)[C@@H]2Cc3ccccc3CN2C(=O)CCC(=O)c2ccccc2)c(C)cc1Cl [Compound 2-19] | – | – | 59 mL/min/kg | 1300 | < 50 | 4.9 | –
13 | Cc1cc(Cl)c(Cl)cc1NC(=O)[C@H](CCN)NC(=O)[C@@H]1Cc2ccccc2CN1C(=O)CCC(=O)c1ccccc1 [Compound 2-21] | – | – | 65 mL/min/kg | 900 | < 50 | 4.3 | –
14 | Cc1cc(NC(=O)[C@H](CCN)NC(=O)[C@@H]2Cc3ccccc3CN2C(=O)CCC(=O)c2ccccc2)c(Cl)cc1Cl [Compound 2-22] | 19 mL/min/kg | 2900 | 10 mL/min/kg | 4200 | < 50 | 27 | AUC(0-t) ([1]; C57BL/6, 10 mg/kg, male mice): 15.1 µM·h
15 | NCC[C@H](NC(=O)[C@@H]1Cc2ccccc2CN1C(=O)CCC(=O)c1ccccc1)C(=O)Nc1ccc(Cl)c(Cl)c1F [Compound 2-24] | 38 mL/min/kg | 1000 | 23 mL/min/kg | 3300 | < 50 | 12.3 | apparent oral clearance (CL/F) ([1]; C57BL/6, 60 mg/kg, male mice): 58 mL/min/kg; AUC(0-t) ([1]; C57BL/6, 10 mg/kg, male mice): 7 µM·h; Cmax ([1]; C57BL/6, 60 mg/kg, male mice): 3000 nM; AUC(0-t) ([1]; C57BL/6, 60 mg/kg, male mice): 29 µM·h
16 | Cc1c(Cl)ccc(NC(=O)[C@H](CCN)NC(=O)[C@@H]2Cc3ccccc3CN2C(=O)CCC(=O)c2ccccc2)c1C [Compound 2-26] | – | – | 76 mL/min/kg | 900 | < 50 | 3.8 | –
17 | Cc1cc(NC(=O)[C@H](CCCN)NC(=O)[C@@H]2Cc3ccccc3CN2C(=O)CCC(=O)c2ccccc2)ccc1Cl [Compound 4-3] | – | – | 4627 mL/min/kg | 30 | < 50 | 0.06 | –
18 | CNCCCC[C@H](NC(=O)[C@@H]1Cc2ccccc2CN1C(=O)CCC(=O)c1ccccc1)C(=O)Nc1ccc(Cl)c(C)c1 [Compound 4-4] | – | – | – | 20 | < 50 | 0.03 | –
19 | Cc1cc(NC(=O)[C@H](CCCCNC(C)C)NC(=O)[C@@H]2Cc3ccccc3CN2C(=O)CCC(=O)c2ccccc2)ccc1Cl [Compound 4-6] | 2346 mL/min/kg | 70 | 158 mL/min/kg | 1200 | < 50 | 1.7 | AUC(0-t) ([1]; C57BL/6, 10 mg/kg, male mice): 0.11 µM·h
20 | Cc1cc(NC(=O)[C@H](CCNC(C)C)NC(=O)[C@@H]2Cc3ccccc3CN2C(=O)CCC(=O)c2ccccc2)ccc1Cl [Compound 8-3] | 246 mL/min/kg | 330 | 56 mL/min/kg | 800 | < 50 | 4.9 | AUC(0-t) ([1]; C57BL/6, 10 mg/kg, male mice): 1.2 µM·h
21 | Cc1c(Cl)cc(NC(=O)[C@H](CCN)NC(=O)[C@@H]2Cc3ccccc3CN2C(=O)CCC(=O)c2ccccc2)cc1Cl [Compound 27-3] | – | – | – | – | < 50 | – | apparent oral clearance (CL/F) ([1]; C57BL/6, 60 mg/kg, female mice): 143 mL/min/kg; Cmax ([1]; C57BL/6, 60 mg/kg, female mice): 5100 nM; AUC(0-t) ([1]; C57BL/6, 60 mg/kg, female mice): 11.7 µM·h
22 | NCC[C@H](NC(=O)[C@@H]1Cc2ccc(F)cc2CN1C(=O)CCC(=O)c1ccccc1)C(=O)Nc1ccc(Cl)c(Cl)c1F [Compound 27-7] | – | – | – | – | < 50 | – | apparent oral clearance (CL/F) ([1]; C57BL/6, 60 mg/kg, female mice): 92 mL/min/kg; Cmax ([1]; C57BL/6, 60 mg/kg, female mice): 4300 nM; AUC(0-t) ([1]; C57BL/6, 60 mg/kg, female mice): 17.6 µM·h

— patent US11040954B1, “CXCR3 receptor agonists” (RECEPTOS LLC, priority 2016, dated 2021)
